By IC50 is commonly meant the point on the concentration scale where inhibition reaches its midpoint.

Data set [1] in a line: Cytotoxicity against BALB/C mouse T lymphocytes assessed as cell viability at 40 uM after 8 to 10 hrs by CCK-8 assay relative to control. The class given is cell-based. The note with it: read-out: Activity. (Tetrazolium assays rely on reduction of a dye to a coloured formazan, in cell work by metabolically active cells.)
Data set [2] is described as follows: Cytotoxicity against BALB/C mouse B lymphocytes assessed as cell viability at 40 uM after 8 to 10 hrs by CCK-8 assay relative to control. Type of data set: cell-based. The following applies: read-out: Activity.
The test system of data set [3] is T-cell. The data set can be described thus: Immunosuppressive activity against BALB/C mouse T lymphocytes assessed as reduction in concanavalin A-induced cell proliferation by measuring [3H]-thymidine uptake incubated for 8 hrs by Beta scintillation counting method. Type of data set: functional, cell-based.
The test system of data set [4] is B-cell line. Kind of data set: Immunosuppressive activity against BALB/C mouse B lymphocytes assessed as reduction in LPS-induced cell proliferation by measuring [3H]-thymidine uptake incubated for 8 hrs by Beta scintillation counting method. Type of data set: functional, cell-based.

Consider `C[C@@]12CCO[C@@H]1C1=CC[C@H]3[C@@](C)(O)[C@@H](O)CC[C@]3(C)[C@H]1CC2`, for which the viability at 40 µM in data set [1] and in data set [2] was greater than 85% each time.
For `C[C@@]1(CCO)CC2=CC[C@@H]3[C@](C)(CCC[C@@]3(C)O)[C@H]2[C@H](O)C1`, the viability at 40 µM in data set [1] and in data set [2] was greater than 85% in each case.
Take `C[C@@]12CCO[C@@H]1C1=CC[C@H]3[C@H](CO)CCC[C@]3(C)[C@H]1CC2`: the IC50 in data set [3] was found to be 6.6 µM; in data set [4], 38.2 µM. Moreover, the viability at 40 µM in data set [1] and in data set [2] was greater than 85% each time.
Consider `CC1(O)CCC[C@]2(C)C3=C(C[C@@]4(C)CCO[C@@H]3C4)[C@@H](O)C[C@@H]12` (stereo partly drawn), for which the viability at 40 µM in data set [1] and in data set [2] was greater than 85% each time.
Regarding `C[C@]1(CCO)CC=C2C(=CC[C@H]3[C@](C)(O)CCC[C@]23C)C1`, the viability at 40 µM in data set [1] and in data set [2] was greater than 85% each time.
Turning to `C[C@@]12CCO[C@@H]1C1=CC[C@H]3[C@](C)(O)[C@@H](O)CC[C@]3(C)[C@H]1CC2`, the viability at 40 µM in data set [1] and in data set [2] was greater than 85% each time.
As to `C[C@]12CC[C@H]3C(=CC[C@@H]4[C@]3(C)CCC[C@@]4(C)O)[C@H]1OC[C@@H]2O`, the viability at 40 µM in data set [1] and in data set [2] was greater than 85% each time.
Turning to `C[C@@H]1C[C@H]2[C@@H]3CCC4=CC(=O)C=C[C@]4(C)[C@@]3(F)[C@@H](O)C[C@]2(C)[C@@]1(O)C(=O)CO` [DEXAMETHASONE], the half-maximal inhibitory concentration (IC50) is 1.6 µM in data set [3] and 0.8 µM in data set [4].
On to `C[C@]1(CCO)CCC2=C(C1)C(=O)C[C@H]1[C@](C)(O)CCC[C@]21C`, for which the viability at 40 µM in data set [1] and in data set [2] was greater than 85% in each case.
Take `C[C@@]12CCO[C@@H]1C1=C[C@@H](O)[C@@H]3[C@](C)(CCC[C@]3(C)O)[C@H]1CC2`: the IC50 came to 14.9 µM in data set [3] and 49.4 µM in data set [4]. Also, the viability at 40 µM in data set [1] and in data set [2] was greater than 85% each time.
On to `C[C@]1(CCO)CC[C@H]2C(=CC[C@H]3[C@H](O)CCC[C@]23C)C1`, for which the viability at 40 µM in data set [1] and in data set [2] was greater than 85% each time.
As to `C=C1CC[C@H]2[C@@](C)(CO)CCC[C@]2(C)[C@H]1CC/C(C)=C/CO`, the IC50 in data set [3] is 15.6 µM; in data set [4] it was 47.2 µM. Besides, the viability at 40 µM in data set [1] and in data set [2] was greater than 85% each time.
Turning to `C[C@]12CCC[C@@](C)(O)[C@@H]1CC=C1[C@H]3OC[C@@H](O)[C@@]3(C)CC[C@@H]12`, the IC50 came out at 4 µM in data set [3] and 46 µM in data set [4]. Also, the viability at 40 µM in data set [1] and in data set [2] was greater than 85% in each case.
Take `C[C@@]12CCO[C@@H]1C1=CC[C@@H]3[C@](C)(CCC[C@@]3(C)O)[C@H]1CC2`: the IC50 is 27.2 µM in data set [3] and 40 µM in data set [4]. The viability at 40 µM in data set [1] and in data set [2] was greater than 85% each time.
On to `C[C@]1(CCO)CC[C@H]2C(=CC[C@@H]3[C@]2(C)CCC[C@@]3(C)O)C1`, for which the results for the IC50 in data set [3] and in data set [4] were 1 µM and 16.1 µM, respectively. The viability at 40 µM in data set [1] and in data set [2] was greater than 85% each time.
Consider `C[C@@]12CCO[C@@H]1C1=CC[C@H]3[C@H](O)CCC[C@]3(C)[C@H]1CC2`, for which the viability at 40 µM in data set [1] and in data set [2] was greater than 85% in each case.
As for `C[C@@]12CCO[C@@H]1C1=CC[C@H]3[C@@](O)(CO)CCC[C@]3(C)[C@H]1CC2`, the half-maximal inhibitory concentration (IC50) is 11.1 µM in data set [3] and 35.1 µM in data set [4]. The viability at 40 µM in data set [1] and in data set [2] was greater than 85% throughout.
On to `C[C@@]12CCO[C@@H]1C1=CC[C@H]3[C@](C)(O)[C@H](O)CC[C@]3(C)[C@H]1CC2`, for which the viability at 40 µM in data set [1] and in data set [2] was greater than 85% in each case.
Take `C[C@]1(CCO)CC[C@H]2C(=CC[C@@H]3[C@]2(C)CCC[C@]3(C)O)C1`: the viability at 40 µM in data set [1] and in data set [2] was greater than 85% throughout.
For `C[C@@]12CCO[C@@H]1C1=CC[C@H]3[C@](C)(CO)CCC[C@]3(C)[C@H]1CC2`, the viability at 40 µM in data set [1] and in data set [2] was greater than 85% in each case.
Turning to `C[C@@]12CCO[C@@H]1C1=CC[C@@H]3[C@](C)(CCC[C@]3(C)O)[C@H]1CC2`, the IC50 was found to be 21.1 µM in data set [3] and 51.8 µM in data set [4]. The viability at 40 µM in data set [1] and in data set [2] was greater than 85% throughout.

For the origin of these results see ChEMBL document CHEMBL4602661, “Immunosuppressive Nor-isopimarane Diterpenes from Cultures of the Fungicolous Fungus Xylaria longipes HFG1018” (J Nat Prod, 2020).
